Data on two compounds can be found in US20220242812A1, “SWELL1-LRRC8 COMPLEX MODULATORS” (Washington University, priority 2019, published 2022).

“Also recorded” adds a separate entry of the source. Where two headings read alike, the source gives them in different places.

Series [1] has as its target T1, SWELL1-LRRC8 channel (ICl,SWELL) in HEK-293 cells (Homo sapiens, UniProt Q8IWT6).
T1 construct: endogenous in cells; host or cells: HEK-293 (ATCC CRL-1573)
Kind of series: ICl,SWELL inhibition after hypotonic activation, patch-clamp in HEK-293 cells. In kind it is cell-based. On the procedure: Mean presented±SEM. Two-tailed unpaired t-test was used. *, **, and *** represents p<0.05, p<0.01 and p<0.001, respectively.
Patch-clamp recordings of β-cells and mature adipocytes were performed as described previously (Kang et al., 2018; Zhang et al., 2017). 3T3-F442A WT and KO preadipocytes were prepared as described in the Cell culture section above. For SWELL1 overexpression recordings, preadipocytes were first transduced with Ad5-CAG-LoxP-stop-LoxP-3×Flag-SWELL1 (MOI 12) in 2% FBS culture medium for two days and then overexpression induced by adding Ad5-CMV-Cre-wt-lRES-eGFP (MOI 10-12) in 2% FBS culture medium for two more days and changed to 10% FBS containing culture media and were selected based on GFP expression (˜2-3 days). For cell recordings, islets were transduced with Ad-RIP2-GFP and then dispersed after 48-72 hours for patch-clamp experiments. GFP+ cells marked β-cells selected for patch-clamp recordings. […] Recordings were measured using […] amplifier paired to a Digidata 1550 digitizer using pClamp 10.4 software. The extracellular buffer composition for hypotonic stimulation contains 90 mM NaCl, 2 mM CsCl, 1 mM MgCl, 1 mM CaCb, 10 mM HEPES, 10 mM Mannitol, pH 7.4 with NaOH (210 mOsm/kg). The extracellular isotonic buffer composition is same as above except for Mannitol concentration of 110 mM (300 mOsm/kg). The composition of intracellular buffer is 120 mM L-aspartic acid, 20 mM CsCl, 1 mM MgCl, 5 mM EGTA, 10 mM HEPES, 5 mM MgATP, 120 mM CsOH, 0.1 mM GTP, pH 7.2 with CsOH. All recordings were carried out at room temperature (RT) with HEK-293 cells, β-cells and 3T3-F442A cells performed in whole-cell configuration and human adipocytes in perforated-patch configuration, as previously described (Kang et al., 2018; Zhang et al., 2017).
For orientation: Patch clamp records ionic current or voltage across a cell membrane.

Series [2] in a line: Caco-2 permeability assay. In kind it is in vitro ADME. The note with it: human, Caco-2; for Papp at 2 h: apparent permeability, read-out: Caco-2 10^−6 cm/s. As to the method:
(§1) In vitro ADMET studies were performed at Charles River Laboratory as outlined below. For the Caco-2 permeability assay, the cells were cultured (DMEM, 10% FBS, 1% L-Glutamax and 1% PenStrep) for 21 days. HBSS was used as the transport buffer and the TEER measurements were taken before the start of the assay. Compounds were added apical side to determine apical to basolateral transport (A-B) and basal side to determine basolateral to apical transport (B-A). Samples (10 μL) were collected at time 0 and 2 h and diluted (5×) with transport buffer. After the quenching reaction, the samples were further diluted in MilliQ water for bioanalysis. The TEER measurements were carried out at the end of the assay and wells with significant decrease in post-assay TEER values were not included in the data and repeated again. The analyte levels (peak area ratios) were measured on apical (A) and basolateral (B) sides at To and T2h-A-B and B-A fluxes were calculated averaging 3 individual measurements. Apparent permeability (Papp, cm/sec) was calculated as dQ (flux)/(dt*area*concentration). The efflux ratio was calculated by Papp(B-A)/[…]. For the microsomal metabolic stability assay, the microsomes were diluted in potassium phosphate buffer to maintain at a final concentration of 0.5 mg/ml in the assay procedure. The compounds were diluted 10-fold in acetonitrile and incubated with the microsomes at 37° C. with gentle shaking. Samples were collected at different timepoints and quenched. The samples were mixed by vortexing for 10 min and centrifuged at 3100 rpm for 10 min at 4° C. The supernatant was diluted in water and further analyzed in LC/MS autosampler. Half-life (T1/2) was calculated by the formula 0.692/slope where slope is ln(% remaining relative to Tzero vs time). Intrinsic clearance was calculated using the (CLn1)=T112*1/initial concentration*mg prep/g liver*g liver/kg body weight. For the cytochrome P450 inhibition assay, the cofactors and substrate were mixed in Potassium phosphate buffer. A stock concentration of 10 mM compounds (in DMSO) were diluted 5-fold in acetonitrile and mixed with cofactor/substrate mixture (2×). Human liver microsomes were diluted in Potassium phosphate buffer for a final concentration (2×) of 0.2 mg/ml and the reaction was initiated by mixing the microsomes with the compound/cofactor/substrate mixture at 37° C. with gentle shaking. Samples were collected at To and T30 min timepoints and quenched. The samples were then centrifuged at 3100 rpm for 5 min at 5-10° C. and the supernatant was diluted in water and further analyzed in LC/MS autosampler. % inhibition was calculated (using peak area ratios) relative to zero inhibition (full activity) and no activity (full inhibition).

The subject of the next series is Caco-2 cell monolayer. Kind of series: Caco-2 permeability assay. Format: in vitro ADME. As to the method:
as §1

Series [3] in a line: Microsomal metabolic stability assay. In kind it is in vitro ADME. The note with it: human liver microsomes; read-out: Human hepatic microsome stability Clintrinsic. On the procedure:
In vitro ADMET studies were performed at Charles River Laboratory as outlined below. For the Caco-2 permeability assay, the cells were cultured (DMEM, 10% FBS, 1% L-Glutamax and 1% PenStrep) for 21 days. HBSS was used as the transport buffer and the TEER measurements were taken before the start of the assay. Compounds were added apical side to determine apical to basolateral transport (A-B) and basal side to determine basolateral to apical transport (B-A). Samples (10 μL) were collected at time 0 and 2 h and diluted (5×) with transport buffer. After the quenching reaction, the samples were further diluted in MilliQ water for bioanalysis. […] The analyte levels (peak area ratios) were measured on apical (A) and basolateral (B) sides at To and T2h-A-B and B-A fluxes were calculated averaging 3 individual measurements. Apparent permeability (Papp, cm/sec) was calculated as dQ (flux)/(dt*area*concentration). The efflux ratio was calculated by Papp(B-A)/Papp(B-A). […] The supernatant was diluted in water and further analyzed in LC/MS autosampler. Half-life (T1/2) was calculated by the formula 0.692/slope where slope is ln(% remaining relative to Tzero vs time). Intrinsic clearance was calculated using the (CLn1)=T112*1/initial concentration*mg prep/g liver*g liver/kg body weight. […]

The next series addresses T2, CYP 2C9 (Homo sapiens, UniProt P11712).
T2 construct: Human liver microsomes were diluted in Potassium phosphate buffer; tissue Charles River Laboratory (performed the study); host or cells: human liver microsomes
Put plainly: Cytochrome P450 inhibition assay, CYP 2C9. In kind it is in vitro ADME. The note with it: human liver microsomes. On the technique in general: Liver microsomes are a subcellular fraction often used to study metabolism.

A further series concerns the target T3, CYP 2D6 (Homo sapiens, UniProt P10635).
T3 construct: Human liver microsomes were diluted in Potassium phosphate buffer; tissue Charles River Laboratory (performed the study); host or cells: human liver microsomes
Kind of series: Cytochrome P450 inhibition assay, CYP 2D6. In kind it is in vitro ADME. The note with it: human liver microsomes.

As for `CCCCC1(C2CCCC2)Cc2cc(OCCCCCC(=O)O)c(Cl)c(Cl)c2C1=O` (stereo not shown) [SN-406, 6-((2-butyl-6,7-dichloro-2-cyclopentyl-1-oxo-2,3-dihydro-1H-inden-5-yl)oxy)hexanoic acid], the “On-target inhibition of ICl,SWELL” value in series [1] (HEK-293 cells, hypotonic (210 mOsm), 10 and 7 μM, relative to SN-401) is reported as “maintained or enhanced; also recorded: increase”. Besides, the Papp at 2 h in series [2] was found to be 1.93 ×10⁻⁶ cm/s. In series [2] (read-out: Caco-2 efflux ratio B-A/A-B), the efflux ratio at 2 h stood at 1.58. In addition, in the series with Caco-2 cell monolayer, the Caco-2 efflux ranking entry is on record as “Not” and the Caco-2 permeability ranking entry is listed as “Higher”. Also, the CLint scaled in series [3] is 46.4 mL/min/kg. This compound also registered a concentration for half-maximal inhibition (IC50) at CYP 2C9 of over 10 µM. This compound also showed an IC50 at CYP 2D6 of over 10 µM.
With `CCCCC1(C2CCCC2)Cc2cc(OCCCC(=O)O)c(Cl)c(Cl)c2C1=O` (stereo not shown) [SN-401, 4-((2-butyl-6,7-dichloro-2-cyclopentyl-1-oxo-2,3-dihydro-1H-inden-5-yl)oxy)butanoic acid], the “Concentration required for inhibiting activated SWELL1-LRRC8” value in series [1] (upon hypotonic stimulation) was about 10 µM. Moreover, the Papp at 2 h in series [2] turned out to be 8.24 ×10⁻⁶ cm/s. Also, the Caco-2 permeability ranking entry with Caco-2 cell monolayer is on record as “Higher”. Also, the Caco-2 efflux ranking entry in the series on Caco-2 cell monolayer (Caco-2) is recorded as “Not”. Besides, in the series on Caco-2 cell monolayer (in words), the “Caco-2 cell monolayer permeability” value was “good”. In addition, the CLint scaled in series [3] stood at 72.7 mL/min/kg. The values for the IC50 on CYP 2C9 and at CYP 2D6 were under 10 µM and over 10 µM, respectively.

Usually IC50 stands for the concentration needed to halve the response being measured. Lower therefore signals higher potency.
